Reference: patent US7015239B2, “Fungicide for plants” (Valent BioSciences, Inc., priority 2003, dated 2006)

Assays:
Botrytis cinerea [1] = experiment: Detached bean leaf bioassay, fungal control; assay type: in vivo; details: three days after inoculation, 100 minus percent necrotic area
Description: (§1) Detached Bean Leaf Bioassay
(§2) Compound solution: Compound solutions were prepared by diluting compound stock solutions (1.0% w/v compound in DMSO) to 200 ppm with 0.01% w/v Triton X-100.
Spore solution preparation: Botrytis cinerea spores were taken from 6-week-old cultures grown at 22 C on full strength potato dextrous agar (PDA) plates and harvested in 1:16 frozen orange juice concentrate:water. Botrytis cinerea spore solutions were prepared by diluting spore cultures to 5×10^4 spores/mL with 1:16 frozen orange juice concentrate:water.
(§3) Plant material: Middle trifoliate leaves of greenhouse grown Phaseolus vulgaris (Bush bean cv. Blue Lake 274) were excised and placed on a plastic grid above a tray containing moist towels.
Treatment method: One half of the adaxial surface of the leaf was treated with the compound solution (100:L) using a 3 cm Bacti Cell Spreader. A blank consisted of 0.01% w/v Triton X-100. A commercial fungicide control (200 ppm diluted with water) consisted of Scala. […]
Fungal control rating: Three days after inoculation with Botrytis, the percent necrotic area under the inoculation droplet was determined. Since the areas under the blank (0.01% w/v Triton X-100) were 100% infected, fungal control was expressed as 100 minus the percent necrotic area, and thus 0% infected is 100% fungal control (n=3 leaves/compound, 5 inoculation droplets/leaf, Table 2).

[2] = test system: Phaseolus vulgaris (Bush bean cv. Blue Lake 274) leaves; experiment: Detached bean leaf bioassay, phytotoxicity rating; assay type: in vivo
Description: as §1, §2, §3
Treatment method: One half of the adaxial surface of the leaf was treated with the compound solution (100:L) using a 3 cm Bacti Cell Spreader. A blank consisted of 0.01% w/v Triton X-100. A commercial fungicide control (200 ppm diluted with water) consisted of Scala. After the solutions dried, the trays containing the leaves were covered and held one day in a growth chamber (22 C). The adaxial surfaces of the leaves were then inoculated with 5–60:L droplets of Botrytis cinerea spore solution.
Phytotoxicity ratings: Phytotoxicity was rated as 0=no phytotoxicity, l=slight phytotoxicity, 2=moderate phytotoxicity, or 3=excessive phytotoxicity (Table 2).

Cercospora arachidicola = experiment: Contact evaluation (microtiter plate); assay type: cell-based
Description: (§4) Compound solution: Contact evaluations were conducted to determine the anti-fungal activity of each compound against Botrytis cinerea, Sclerotinia sclerotiorum, Pythium aphanidermatum, Rhizoctonia solani, Cercospora arachidicola, Mycosphaerella fijiensis, and Monilinia laxa. Five milligrams of each compound were dissolved in 0.5 milliliter of DMSO for a compound stock solution of 1.0% w/v. Compound stock solutions were serial diluted with DMSO to 20, 10, and 2 ppm final well concentration.
(§5) Fungi preparation: Botrytis cinerea spores were taken from 6-week-old cultures grown at 22C on full strength potato dextrous agar (PDA) plates. Sclerotinia sclerotiorum, Pythium aphanidermatum, Rhizoctonia solani, and Monilinia laxa mycelia were taken from 4- to 10-day-old shake flask cultures grown at room temperature on full strength potato dextrous broth (PDB). Cercospora arachidicola mycelia were taken from 10- to 14-day-old shake flask cultures grown at room temperature on a full strength PDB amended with peanut oil. Mycosphaerella fijiensis mycelia were taken from 10- to 14-day-old shake flask cultures grown at room temperature on V8 juice broth. Sclerotinia sclerotiorum, Pythium aphanidermatum, Rhizoctonia solani, Cercospora arachidicola, and Mycosphaerella fijiensis mycelia (0.4 g mycelia) were blended for 45 seconds in 20 mL sterile de-ionized water. Monilinia laxa mycelia (1 g mycelia) was blended for 45 seconds in 30 mL of sterile de-ionized water. Botrytis cinerea spores were diluted with quarter strength PDB to 1×10^5 spores/mL final well concentration. All mycelia were diluted in water (1:5 mycelia:water) before distributing into the wells.
(§6) Microtiter plate preparation: Compound solution (10:L), quarter strength PDB (900:L) and fungi preparation (100:L) were sequentially distributed into 48-well microtiter plates (n=3 replications/compound/rate). A blank consisted of quarter strength PDB and fungi preparation. Commercial fungicide controls (100 ppm diluted with water) consisted of Scala for Botrytis cinerea, Dithane F-45 for Mycosphaerella fijiensis, and Benlate for Sclerotinia sclerotiorum, Pythium aphanidermatum, Rhizoctonia solani, Cercospora arachidicola, and Monilinia laxa. Plates were shaken in a circular rotator at room temperature for 20 minutes, then incubated at 25 C for 24 to 72 hours, depending on the pathogen.
(§7) Fungal control ratings: Fungal growth in wells containing the compounds were compared to the positive control and fungal inhibition was rated as full, partial, or none. Final readings were the average of the three wells (Table 1).

Rhizoctonia solani = experiment: Contact evaluation (microtiter plate); assay type: cell-based; details: Rhizoctinia solani
Description: as §4, §5, §6, §7

Pythium aphanidermatum = experiment: Contact evaluation (microtiter plate); assay type: cell-based
Description: as §4, §5, §6, §7

Botrytis cinerea [3] = experiment: Contact evaluation (microtiter plate); assay type: cell-based
Description: as §4, §5, §6, §7

Sclerotinia sclerotiorum = experiment: Contact evaluation (microtiter plate); assay type: cell-based; details: Sclerotinia sclerotionum
Description: as §4, §5, §6, §7

Mycosphaerella fijiensis = experiment: Contact evaluation (microtiter plate); assay type: cell-based
Description: as §4, §5, §6, §7

Monilinia laxa = experiment: Contact evaluation (microtiter plate); assay type: cell-based
Description: as §4, §5, §6, §7

Question: Which “Botrytis cinerea control (200 ppm)” value (Botrytis cinerea [1]) does the source give for `Cc1ccc(-c2cc(-c3ccc(C)cc3)[n+](-c3ccccc3)c(-c3cccc(C)c3)c2)cc1.[O-][Cl+3]([O-])([O-])O` [formula I] here?
Answer: The value was 93%.

Question: And the “Phytotoxity (200 ppm)” value [2]?
Answer: Its value is “Slight”.

Question: What about the “Control of fungi (full, partial, none)” value (Cercospora arachidicola; fungicide rate 2 ppm) of the same compound?
Answer: The value was “None”.

Question: And the “Control of fungi (full, partial, none)” value (Cercospora arachidicola; fungicide rate 10 ppm)?
Answer: The value was “Full”.

Question: And the “Control of fungi (full, partial, none)” value (Cercospora arachidicola; fungicide rate 20 ppm)?
Answer: The value was “Full”.

Question: What about the “Control of fungi (full, partial, none)” value (Rhizoctonia solani; fungicide rate 2 ppm) of the same compound?
Answer: Its value is “None”.

Question: And the “Control of fungi (full, partial, none)” value (Rhizoctonia solani; fungicide rate 10 ppm)?
Answer: The value was “Full”.

Question: What about the “Control of fungi (full, partial, none)” value (Rhizoctonia solani; fungicide rate 20 ppm) of the same compound?
Answer: Its value is “Full”.

Question: What about the “Control of fungi (full, partial, none)” value (Pythium aphanidermatum; fungicide rate 2 ppm) of the same compound?
Answer: The value was “Full”.

Question: What about the “Control of fungi (full, partial, none)” value (Pythium aphanidermatum; fungicide rate 10 ppm) of the same compound?
Answer: The value was “Full”.

Question: And the “Control of fungi (full, partial, none)” value (Pythium aphanidermatum; fungicide rate 20 ppm)?
Answer: Its value is “Full”.

Question: And the “Control of fungi (full, partial, none)” value (Botrytis cinerea [3]; fungicide rate 2 ppm)?
Answer: The value was “Partial”.

Question: What about the “Control of fungi (full, partial, none)” value (Botrytis cinerea [3]; fungicide rate 10 ppm) of the same compound?
Answer: Its value is “Full”.

Question: And the “Control of fungi (full, partial, none)” value (Botrytis cinerea [3]; fungicide rate 20 ppm)?
Answer: The value was “Full”.

Question: What about the “Control of fungi (full, partial, none)” value (Sclerotinia sclerotiorum; fungicide rate 2 ppm) of the same compound?
Answer: The value was “Full”.

Question: What about the “Control of fungi (full, partial, none)” value (Sclerotinia sclerotiorum; fungicide rate 10 ppm) of the same compound?
Answer: Its value is “Full”.

Question: What about the “Control of fungi (full, partial, none)” value (Sclerotinia sclerotiorum; fungicide rate 20 ppm) of the same compound?
Answer: The value was “Full”.

Question: And the “Control of fungi (full, partial, none)” value (Mycosphaerella fijiensis; fungicide rate 2 ppm)?
Answer: The value was “Full”.

Question: What about the “Control of fungi (full, partial, none)” value (Mycosphaerella fijiensis; fungicide rate 10 ppm) of the same compound?
Answer: The value was “Full”.

Question: And the “Control of fungi (full, partial, none)” value (Mycosphaerella fijiensis; fungicide rate 20 ppm)?
Answer: The value was “Full”.

Question: What about the “Control of fungi (full, partial, none)” value (Monilinia laxa; fungicide rate 2 ppm) of the same compound?
Answer: Its value is “Full”.

Question: And the “Control of fungi (full, partial, none)” value (Monilinia laxa; fungicide rate 10 ppm)?
Answer: The value was “Full”.

Question: What about the “Control of fungi (full, partial, none)” value (Monilinia laxa; fungicide rate 20 ppm) of the same compound?
Answer: The value was “Full”.
